Holding throughout (experiment): NCI-60 cell line screen, 48 h
In experiment [1] the test system is NCI-H23 lung.
In experiment [2] the test system is LOX IMVI melanoma.
In experiment [3] the test system is MDA-MB-435.
For experiment [4], the system named is RXF 393 renal.
Experiment [5] has as its system OVCAR-5 ovarian.
The subject of experiment [6] is SK-MEL-28 melanoma.
Experiment [7] concerns NCI-H226 lung.
Experiment [8] concerns MOLT-4 leukemia.
Experiment [9] relates to HT29 colon.
The test system of experiment [10] is HS 578T breast.

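Test compounds were applied to cells in 96-well plates for 48 hours at 5 doses. GI50 marks 50% less growth. TGI marks complete inhibition of growth.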

In the case of `CCOC(=O)c1cc(NS(=O)(=O)c2ccc(C)cc2)cc(C(=O)OCC)c1`, the GI50 in [1] was 38.5 µM; in [2], 61.4 µM; in experiment [3], 33.6 µM; in [4], more than 100 µM; in experiment [5], 37.9 µM; in experiment [6], 27 µM. Also, the GI50 in [7] is 54 µM; in experiment [8] it was 26.6 µM; in experiment [9] it was 82.7 µM; in [10], 26.4 µM. Further, the TGI in experiment [1] was more than 100 µM; in experiment [2] it was more than 100 µM; in experiment [3], more than 100 µM; in [4] it was more than 100 µM; in [5] it was more than 100 µM; in experiment [6] it was 93.5 µM. Further, the TGI in experiment [7] is more than 100 µM; in experiment [8], more than 100 µM; in experiment [9], more than 100 µM; in [10], 69.9 µM.
For `Cc1ccsc1-c1ccc2c(c1)COC2(CCCN(C)C)c1ccc(F)cc1` (stereo not given), the GI50 in experiment [1] is 5.39 µM; in experiment [2], 1.64 µM; in experiment [3], 1.68 µM; in [4], 2.76 µM; in [5], 3.81 µM; in experiment [6], 1.76 µM. Further, the GI50 was 8.59 µM in [7], 2.7 µM in [8], 2.29 µM in [9] and 2.39 µM in experiment [10]. Also, the TGI in experiment [1] was determined as 18.1 µM; in [2], 3.04 µM; in experiment [3] it was 3.24 µM; in experiment [4], 9.44 µM; in experiment [5] it was 15 µM; in experiment [6] it was 3.33 µM. Moreover, the TGI amounted to 25.3 µM in experiment [7], 8.43 µM in experiment [8], 8.45 µM in [9] and 9.07 µM in experiment [10].
On to `CC/C=C\C[C@H](O)C/C=C1/C(=O)C=C[C@@H]1C/C=C\CCCCO`, for which the GI50 in [1] was 2.26 µM; in experiment [2], 1.34 µM; in experiment [3], 3.48 µM; in experiment [4] it was 2.25 µM; in experiment [5], 3.25 µM; in experiment [6] it was 2.39 µM. In addition, the GI50 in [7] is 2.24 µM; in [8] it was 2.65 µM; in experiment [9], 2.4 µM; in experiment [10], 9.24 µM. Besides, the TGI in experiment [1] turned out to be 5.95 µM; in [2], 2.93 µM; in experiment [3] it was 15.8 µM; in experiment [4] it was 4.18 µM; in [5] it was 8.95 µM; in [6], 6.87 µM. Also, the TGI is 4.76 µM in experiment [7], 11.1 µM in experiment [8], 5.62 µM in experiment [9] and more than 100 µM in experiment [10].
On to `CC(C)Cc1ccc(C(C)C(=O)NCc2ccc(Cn3c(=O)sn(CCCI)c3=O)cc2)cc1` (stereo not given), for which the GI50 in experiment [1] was 1.32 µM; in [2] it was 0.181 µM; in [3], 0.485 µM; in [4], 0.326 µM; in experiment [5], 1.39 µM; in experiment [6], 1.2 µM. Further, the GI50 is 0.884 µM in experiment [7], 0.511 µM in [8], 0.238 µM in [9] and 0.653 µM in experiment [10]. For the same compound, the TGI in experiment [1] stood at 2.79 µM; in experiment [2] it was 0.393 µM; in [3], 1.77 µM; in experiment [4] it was 1.33 µM; in experiment [5], 2.84 µM; in [6], 2.46 µM. Moreover, the TGI in experiment [7] was 2.32 µM; in [8] it was more than 28.3 µM; in experiment [9], 0.75 µM; in experiment [10], 1.83 µM.
`C=CC(=O)Nc1cccc(Oc2nc(Nc3ccc(N4CCN(C)CC4)cc3OC)ncc2Cl)c1`: the GI50 in experiment [1] was 3.92 µM; in experiment [2], 1.58 µM; in experiment [3], 1.7 µM; in [4] it was 1.49 µM; in experiment [5] it was 2.29 µM; in experiment [6], 2.02 µM. Besides, the GI50 in experiment [7] is 1.81 µM; in [8], 2.57 µM; in experiment [9] it was 2.08 µM; in experiment [10] it was 1.86 µM. In addition, the TGI in experiment [1] worked out at 23.7 µM; in experiment [2] it was 2.99 µM; in experiment [3], 3.24 µM; in [4], 3.12 µM; in experiment [5] it was 13 µM; in experiment [6] it was 4.07 µM. Also, the TGI in experiment [7] was 5.66 µM; in experiment [8], more than 23.4 µM; in experiment [9], 4.53 µM; in experiment [10] it was 5.39 µM.
On to `O=C1NC(=NCCc2ccccn2)S/C1=C\c1ccc2ncccc2c1`, for which the GI50 in [1] was 11.1 µM; in [2], 13.3 µM; in experiment [3] it was 9.59 µM; in experiment [4], 8.97 µM; in experiment [5], more than 22.3 µM; in [6], 15.4 µM. The GI50 is 11 µM in experiment [7], 8.04 µM in [8], 13.8 µM in [9] and 9.79 µM in experiment [10]. For the same compound, the TGI in [1], in experiment [2], in experiment [3], in [4], in [5] and in [6] was more than 25 µM throughout. Also, the TGI was more than 25 µM in [7], 22.6 µM in experiment [8], more than 25 µM in experiment [9] and more than 20.2 µM in experiment [10].
For the compound `CN(C)C=Nc1c(I)cc(I)c(CCC(=O)O)c1I`, the GI50 in [1], in experiment [2], in experiment [3], in experiment [4], in [5] and in [6] was more than 100 µM each time. Also, the GI50 in [7], in experiment [8], in experiment [9] and in experiment [10] was more than 100 µM throughout. In addition, the TGI in experiment [1], in [2], in experiment [3], in [4], in [5] and in [6] was more than 100 µM throughout. In addition, the TGI in experiment [7], in experiment [8], in experiment [9] and in experiment [10] was more than 100 µM each time.
